# According to patent publication US4435393A, “Derivatives of 10-(1-azabicyclo[2.2.2]oct-3-yl)-N,N dimethyl-10H-phenothiazine-2-sulfonamide as medicaments” (Pharmindustrie, priority 1981, dated 1984):
# Read-outs that look alike come from different tables or passages of the source.
# System: gastric hypersecretion stimulated by pentagastrine
# Assay: antisecretory activity on gastric hypersecretion stimulated by pentagastrine in dogs wearing a Heidenhain pouch
# Type: in vivo, dog (mongrel)
# Settings: for ED50: Canis lupus familiaris, read-out: ED 50 (dose which reduced by 50% the hourly acid flow)
# Procedure: Three mongrel dogs wearing Heidenhain pouches and which were kept without food for 18 hours received a venous perfusion of […] of pentagastrine per hour in a volume of 30 mls per hour for 4 hours. The secretion from the pouch was collected in a flask which was changed every 15 minutes. An hour and a half after the beginning of the perfusion process, the product to be examined was administered orally in a No. 000 gelatin coated pill. […] The doses are expressed in the product in the base form.
# [1] = oral, Heidenhain pouch dogs, pentagastrine perfusion, acid flow at 3rd or 4th hour vs second hour, doses expressed as base
Structure (SMILES),ED50 [1],"inhibition of gastric secretion relative to Cimetidine (oral, Heidenhain pouch dogs)",ED50 (po)
"CN(C)S(=O)(=O)c1ccc2c(c1)N(C1CN3CCC1CC3)c1ccccc1[S+]2[O-] (stereo not drawn) [Example 1, 10-(1-azabicyclo[2.2.2]oct-3-yl)-N,N dimethyl-10H-phenothiaxine-2-sulfonamide S-oxide]",2.3 mg/kg,as active as Cimetidine,
"CN(C)S(=O)(=O)c1ccc2c(c1)N(C1CN3CCC1CC3)c1ccccc1[S+]2[O-] (single isomer, unassigned) [Example 2, 10-(1-azabicyclo[2.2.2]oct-3-yl)-N,N dimethyl-10H-phenothiazine-2-sulfonamide S-oxide]",2.5 mg/kg,as active as Cimetidine,
"CN(C)S(=O)(=O)c1ccc2c(c1)N(C1CN3CCC1CC3)c1ccccc1S2(=O)=O (stereo not drawn) [Example 3, 10-(1-azabicyclo[2.2.2]oct-3-yl)-N,N dimethyl-10H-phenothiazine-2 sulfonamide S-dioxide]",10 mg/kg,,
"CN/C(=N/CCSCc1nc[nH]c1C)NC#N [Cimetidine, reference compound]",,,2.3 mg/kg
